Where two headings read alike, the source gives them in different places.
Experiments:
[1] = tested on: C. trachomatis L2; test: Withdrawal assay; assay type: cell-based, Chlamydia trachomatis; conditions: progeny EBs at 36 hpi, compared with 36 hpi sample
Method: HeLa cells seeded in 48-well plate were infected with C. trachomatis L2 at an MOI of 0.2 and simultaneously treated with 2, 8, or 32 μM of compound. At 2, 12, 24, and 36 hpi, infected cells were washed twice to remove residual inhibitor, and fresh medium was added. At 36 hpi, the production of infectious progeny EBs and percent inhibition data were determined as above.  Figure 6 Withdrawal assay. (a) HeLa cells infected with C. trachomatis L2 were simultaneously treated with 2, 8, or 32 μM individual compound. The compound was removed at 2, 12, 24, or 36 hpi, and the production of progeny EBs was determined at 36 hpi. (b–d) Percent inhibition of progeny EBs was calculated based on data in compound-treated samples relative to DMSO-treated control. Data are presented as mean ± SD of three independent assays. ∗p < 0.05, ∗∗p < 0.01, compared with each 36 hpi positive control sample by Student's t-tests.

[2] = tested on: Chlamydia trachomatis serovar D (strain UW-3/CX); test: Infectious progeny inhibition assay, C. trachomatis D; assay type: cell-based; conditions: generation of infectious progeny EBs in HeLa cells, MOI 0.2, 36 hpi, 1 to 32 μM, read-out: IC50 (μM) Mean (95% confidence interval) Ct D
Method: Chlamydia trachomatis serovars D (strain UW-3/CX) and L2 (strain 434/Bu) were purchased from ATCC. HeLa cells purchased from ATCC were routinely cultured in DMEM supplemented with 10% heat-inactivated FBS (Sigma-Aldrich) and 10 μg/mL gentamicin at 37°C in a humidified atmosphere of 5% and were used for chlamydial propagation and cell culture experiments. EBs were purified by Renografin density gradient and stored in sucrose-phosphate-glutamate (SPG) buffer at -80°C [20]. A mouse polyclonal anti-MoPn (C. muridarum strain Nigg II) antibody, which was produced in our laboratory and cross-reacting with C. trachomatis D and L2, was used as a primary antibody for both stains detection.
Cell monolayers seeded onto coverslips in a 24-well plate were infected with C. trachomatis at a multiplicity of infection (MOI) of 0.2 inclusion-forming units (IFU) per cell. Unless noted, individual compound was added into culture medium at indicated concentrations simultaneously at the time of inoculation. 0.5% DMSO was used as negative control and 11.25 μM tetracycline (Sigma-Aldrich) as positive control. For C. trachomatis D, an additional centrifugation (900 × g at room temperature for 1 h) was applied to facilitate the infection. At 36 hours postinfection (hpi), infected cells were fixed by precooled methanol and then subjected to sequential staining processed with a primary antibody and a FITC-conjugated secondary antibody. Evans blue was used as cytoplasm counterstain. Images were shot by an Olympus IX51 fluorescence microscope.
Cells monolayers seeded in 48-well plate were infected and treated with chemicals as above. After incubation for 36 hours, infected cells were washed twice, scraped off, and lysed by sonication to release the infectious progeny EBs. Then the lysates were used to reinfect fresh cell monolayers grown in 96-well plate following 1 : 10 serial dilution. The inclusion counts were obtained by immunofluorescence staining as above to calculate the number of infectious progeny EBs in each sample. Percent inhibition was calculated based on EB counts in compound-treated samples relative to DMSO-treated negative control.
Data from the three independent experiments were presented as mean ± standard deviations (SD) and were subjected to pairwise Student's t-tests. p < 0.05 and p < 0.01 are considered statistically significant and statistically highly significant, respectively. The IC50 values, defined as the concentration of compound at which the generation of infectious progeny EBs was reduced by 50% relative to negative control, were calculated by nonlinear regression from percent inhibition data using the GraphPad Prism 5 software, and presented as mean (95% confidence interval).

[3] = tested on: C. trachomatis L2; test: Inclusion body immunofluorescence staining; assay type: cell-based, Chlamydia trachomatis; conditions: for Inclusions at the highest concentration: 32 μM, C. trachomatis L2, HeLa cells, 36 hpi; for Formation (number) and growth (size) of C. trachomatis L2 inclusions: HeLa cells, MOI 0.2, 36 hpi, compared with 0.5% DMSO
Method: Cell monolayers seeded onto coverslips in a 24-well plate were infected with C. trachomatis at a multiplicity of infection (MOI) of 0.2 inclusion-forming units (IFU) per cell. Unless noted, individual compound was added into culture medium at indicated concentrations simultaneously at the time of inoculation. 0.5% DMSO was used as negative control and 11.25 μM tetracycline (Sigma-Aldrich) as positive control. For C. trachomatis D, an additional centrifugation (900 × g at room temperature for 1 h) was applied to facilitate the infection. At 36 hours postinfection (hpi), infected cells were fixed by precooled methanol and then subjected to sequential staining processed with a primary antibody and a FITC-conjugated secondary antibody. Evans blue was used as cytoplasm counterstain. Images were shot by an Olympus IX51 fluorescence microscope. […] At the highest concentration of 32 μM, inclusions were few and tiny, analogous to the positive control tetracycline (final concentration, 11.25 μM). In addition, the reduction on the production of progeny EBs was consistent with that of the inclusion number and size (Figure 1(b)). The direct inhibitory effect was also analyzed for C. trachomatis D. Happened as expected, changes in inclusion size and number and the progeny production that response to both chemicals are highly similar to those observed for C. trachomatis L2, with slightly weaker effect (Figures 1(a) and 1(c)).  Figure 1 Inhibition effect of compounds 1 and 2 on C. trachomatis. HeLa cells were infected with C. trachomatis L2 or D at an MOI of 0.2 in the presence of 0.5% DMSO, 11.25 μM tetracycline, or various concentrations of individual compound. Cells were either fixed or lysed for determination of infectious progeny EBs at 36 hpi. (a) Representative immunofluorescence microscopy images (scale bar = 100 μm). Inclusions were stained with a polyclonal anti-MoPn antibody that cross-reacts with C. trachomatis L2 and D (green), and cells were counterstained with Evans blue (red). (b, c) The percent inhibition of production of infectious progeny EBs was calculated based on data in compound-treated samples relative to DMSO-treated control. Data are presented as mean ± SD of three independent assays.

Row | IC50 ([2]; Chlamydia trachomatis, HeLa) [µM] | IC50 [2] [µM] | SMILES | Inhibitory effect when chemical was removed after 24 hpi [1] | Inhibitory effect when chemical was removed before 12 hpi [1] | Inclusions at the highest concentration [3] | Formation (number) and growth (size) of C. trachomatis L2 inclusions [3]
1 | < 10 | 9.73 | Clc1ccc(N2C(c3ccccc3)CC3C(c4ccccc4)N(c4ccccc4)OC32)cc1 (stereo not drawn) [Compound 2] | relatively well preserved | significantly reduced | few and tiny | inhibited the formation (number) and growth (size)
2 | < 10 | 9.31 | c1ccc(C2C3CC(c4ccccc4)N(c4ccccc4)C3ON2c2ccccc2)cc1 (stereo not drawn) [Compound 1] | relatively well preserved | significantly reduced | few and tiny | inhibited the formation (number) and growth (size)
